Test results reported in paper PMC10097024, “Cytotoxic and Antibacterial Prenylated Acylphloroglucinols from Hypericum olympicum L” (Plants, 2023).
Converted amounts (≈) assume the structure as drawn. “And” between values parts separate entries of the source, which are not always exact repeats. Identical values can stand only once. Like-named read-outs stand apart in the source and are kept apart here.

Tests used:
K-562 cells = conditions: cited from earlier work
MDA-MB-231 cells = conditions: cited from earlier work
[1] = system: Streptococcus pyogenes (SAIMC 10535); experiment: MIC by broth microdilution; assay type: cell-based; conditions: read-out: MIC
Source text: (§1) The Gram-positive bacterial strains that were examined for susceptibility were: Staphylococcus aureus (ATCC 29213, American Type Cell Culture Collection, Manassas, VA, USA), Staphylococcus aureus—MRSA (NBIMCC 8327-resistant to methicillin and oxacillin, National Bulgarian Collection for Industrial Microorganisms and Cell Cultures, Sofia, Bulgaria), Enterococcus faecalis (ATCC 29212) and Streptococcus pyogenes (SAIMC 10535, Collection of the Stephan Angeloff Institute of Microbiology, Sofia, Bulgaria). The only Gram-negative bacterial strain used was Escherichia coli (ATCC 35218). Bacteria were maintained in Trypticase Soy Broth (TSB, Himedia, India) at 37 °C, aerobic conditions. For the experiments brain heart infusion (BHI) broth (#M210 HiMedia, Mumbai, India) was used for E. faecalis and S. pyogenes and Mueller Hinton broth (MHB, #M0405B) from Thermo Scientific-Oxoid (Basingstoke, UK)—for all other strains.
(§2) BMD was performed according to the following protocol of ISO 20776/1-2006 [117]. A bacterial suspension with density of 10^8 CFU/mL (0.5 McFarland standard, OD600) was prepared from an overnight grown liquid bacterial culture homogenized over vortex and brought to a working bacterial suspension (WBS) with concentration of 5×10^5 CFU/mL by being diluted 200× with MHB or BHI broth and homogenized over vortex again. Two-fold serial dilutions of compounds 3–5 was prepared in 96-well round bottom plates to a volume of 50 μL and final range of concentrations 100–0.2 μg/mL. Stock solutions were dissolved in ethanol and MHB was used as diluent and as test for absence of contamination. Three wells were left as blank samples and 6 wells were left for control samples. An equivalent volume (50 μL) of the WBS was inoculated to each well in the aforementioned plates achieve final bacterial density of […] with the exception of the blank wells. After 18–24 h incubation under aerobic standardized conditions at 37 °C the plates were examined. […] Antibiotics dissolved in sterile distilled water were used as referent positive controls. They were penicillin G (PEN, #B0500000, Merck KGaA, Darmstadt, Germany) for E. faecalis and S. pyogenes, gentamicin (GEN, #15750-037, 50 mg/mL, Gibco, Paisley, UK) for all bacteria except S. pyogenes and ciprofloxacin (CIP, Ciproflav:10 mg/mL, Polfa S.A. Warsaw Pharmaceutical Works, Starogard Gdanski, Poland) for E. faecalis. The range of concentrations were 0.004–2 mg/L for PEN, 0.008–4 mg/L for GEN and 0.005–2 mg/L for CIP. The requirements of EUCAST (European Committee on Antimicrobial Susceptibility Testing) for their MICs were followed for discussing the results. In the end the plates which contained active agents were subjected to assessment of the dehydrogenase activity of the bacteria.

[2] = system: Enterococcus faecalis (ATCC 29212); experiment: MIC by broth microdilution; assay type: cell-based; conditions: ATCC29212, read-out: MIC
Source text: as §1, §2

HL-60 cells = conditions: cited from earlier work
K-562 [3] = experiment: MTT cytotoxicity test; assay type: cell-based, human; conditions: Homo sapiens, K562, K-562, 72 h exposure
Source text: (§3) The group of human cell lines used in this study were represented by the tumor cell lines MDA-MB (breast carcinoma), EJ (urinary bladder carcinoma), K-562 (chronic myeloid leukemia), HL-60 (acute pre-myeloid leukemia), HL-60/DOX (multi-drug resistant HL-60 cell line, with over expression of MRP-1) and the non-tumorigenic cell lines HEK-293 (embryonic kidney cells) and EA.hy926 (vascular endothelial cells). EJ, HL60 and EA.hy926 were purchased from American Type Culture Collection (ATCC) (Manassas, Virginia). The other cell lines were purchased from the German Collection of Microorganisms and Cell Cultures (DSMZ GmbH, Braunschweig, Germany). HL-60/DOX cell lines were generated by periodically treating HL-60 cells with anthracyclins. The conditions in which the cell culture flasks were maintained were as follows: 37 °C in an incubator “BB 16-Function Line” Heraeus (Kendro, Hanau, Germany) with 5% CO2 humidified atmosphere. The growth medium was 90% RPMI-1640, supplemented with 10% FBS and 2 mM L-glutamine. MDA-MB-231, EJ, HEK-293 and EA.hy926 cells were maintained as adherent monolayer cultures while all the other (leukemic) cell lines were grown as suspension type cultures. Cells were maintained in log phase: the adherent cell lines were subjected to trypsinization 1–2 times a week and the leukemic cell lines were passaged 2–3 times a week by removing of part of the cellular suspension and substituting it with fresh medium.
(§4) The evaluation of cytotoxic activity was conducted by MTT test as described previously. The median inhibitory concentration (IC50) values which represent the half-maximal concentration values were calculated from sigmoidal concentration–response curves, using non-linear regression analysis (Curve fit, GraphPad Prizm 5.0 software, GraphPad Software Inc., San Diego, CA, USA). The selectivity index was calculated as the ratio of the IC50 of a non-cancerous line (HEK-293 or EA.hy926) and the average IC50 of all chemosensitive tested tumor cell lines (x). Therefore, SI=IC50HEK-293/IC50x . The resistance index (RI) was calculated as the ratio of IC50 of the multi-drug resistant HL-60/DOX cell line and the IC50 of its parent cell line: RI=IC50HL-60/DOX/IC50HL-60 .

EJ = experiment: MTT cytotoxicity test; assay type: cell-based, human; conditions: Homo sapiens, 72 h exposure
Source text: as §3, §4

HL-60/DOX = experiment: MTT cytotoxicity test; assay type: cell-based, human; conditions: Homo sapiens, 72 h exposure
Source text: as §3, §4

MDA-MB-231 [4] = experiment: MTT cytotoxicity test; assay type: cell-based, human; conditions: Homo sapiens, MDA-MB-231, 72 h exposure
Source text: as §3, §4

HL-60 [5] = experiment: MTT cytotoxicity test; assay type: cell-based, human; conditions: Homo sapiens, HL-60, 72 h exposure
Source text: as §3, §4

[6] = system: human tumor (MDA-MB-231, EJ, K-562, HL-60 and HL-60/DOX) cell lines; experiment: MTT cytotoxicity test, tumor cell line panel; assay type: cell-based; conditions: Homo sapiens; average IC50 of all chemo-sensitive tested tumor cell lines; read-out: x
Source text: as §3, §4

[7] = system: NorA multidrug efflux pumps; design: method as in PMID 24119569; conditions: S. aureus; cited from earlier work
MRSA = conditions: growth of MRSA; cited from earlier work
HEK-293 = experiment: MTT cytotoxicity test; assay type: cell-based, human; conditions: Homo sapiens, HEK293, HEK-293, 72 h exposure
Source text: as §3, §4

EA.hy926 = experiment: MTT cytotoxicity test; assay type: cell-based, human; conditions: Homo sapiens, EA.hy 926, EA.hy926, 72 h exposure
Source text: as §3, §4

Bcl-2 = experiment: Western blot, Bcl-2; assay type: cell-based, human; conditions: MDA-MB-231 and HL60/DOX
Method: (§5) Next, the samples were lysed on ice with a buffer containing 100 mM Tris–HCl at pH 8.0, 4% SDS, 20% glycerol, 1% Na3VO4, 200 mM dithiothreitol (DTT) (Sigma-Aldrich, St. Louis, MO, USA) and protease inhibitor (Roche, Basel, Switzerland). Then the cell lysate was boiled for 15 min and centrifuged at 13,000 rpm for 10 min at 4 °C. Before DTT addition, aliquot samples of 10 μL were taken from the lysates. Their protein concentrations were determined using a BCA protein assay kit (ThermoFisher Scientific, Waltham, MA, USA) after dilution 5× with H2O. Subsequently, the samples were subjected to denaturing SDS-PAGE electrophoresis and then transferred to PVDF membrane (Santa Cruz Biotechnology, USA). After this, the blots were fixed with blocking solution (5% w/v nonfat dried milk powder, dissolved in TBS) and incubated with specific primary antibodies: mouse procaspase-9 (sc-17784), mouse Bcl-2 (C-2, sc-7382) and mouse β-actin (sc-8432). The incubation was either overnight at 4 °C or for 150 min at room temperature. After washing, the membranes were incubated for 45 min with horseradish peroxidase conjugated secondary goat anti-mouse antibody (sc-2005) or mouse IgG kappa antibody (sc-516102) (Santa Cruz Biotechnology, Santa Cruz, CA, USA). […] This densitometry analysis of the blots was calculated by Quantity One software version 4.6.9 (Bio-Rad Laboratories, Hercules, CA, USA). […]

K-562 [8] = experiment: Antiproliferative test (NCI methodology); assay type: cell-based, human; conditions: for GI50: Homo sapiens, K562, K-562, MTT readout; for TGI: K-562, total growth inhibition
Source text: as §3
(§6) The test was performed according the methodology of National Cancer Institute (NCI), USA [116]. Briefly, cells were seeded into 96-well plates in the same way as for an MTT test and after 24 h, the absorption of one plate of each cell line was measured as in the MTT assay described above, to represent a measurement of the cell population at the time of drug-addition (Tz). The rest of the plates were treated with the tested compounds and the experiment for them continued as the MTT-method. Using the absorbance measurements [(Tz, untreated control growth (C) and test growth in the present of the compounds (Ti)], the percentage growth is calculated at each of the tested concentrations of the compounds. Percentage growth inhibition (GI) is calculated as GI%=Ti−Tz/C−Tz×100 for concentrations for which Ti ≥ Tz. For concentrations in which Ti < Tz it is calculated as GI%=Ti−Tz/Tz×100 . Two dose parameters are calculated for each experimental agent. Growth inhibition of 50% (GI50) is calculated from Ti−Tz/C−Tz×100=50 . This is the drug concentration resulting in a 50% reduction in the net protein increase (as measured by MTT-test) in control cells during the drug incubation. The drug concentration resulting in total growth inhibition (TGI) is calculated from Ti = Tz.

MDA-MB-231 [9] = experiment: Antiproliferative test (NCI methodology); assay type: cell-based, human; conditions: for GI50: Homo sapiens, MDA-MB-231, MTT readout; for TGI: MDA-MB-231, total growth inhibition
Source text: as §3, §6

HL-60 [10] = experiment: Antiproliferative test (NCI methodology); assay type: cell-based, human; conditions: for TGI: HL-60, total growth inhibition; for GI50: Homo sapiens, HL-60, MTT readout
Source text: as §3, §6

[11] = system: Staphylococcus aureus—MRSA (NBIMCC 8327); experiment: MIC by broth microdilution; assay type: cell-based; conditions: read-out: MIC
Source text: as §1, §2

[12] = system: Staphylococcus aureus (ATCC 29213); experiment: MIC by broth microdilution; assay type: cell-based; conditions: ATCC29213, Staphylococcus aureus, read-out: MIC
Source text: as §1, §2

procaspase 9 = experiment: Western blot, procaspase 9; assay type: cell-based, human; conditions: MDA-MB-231 and HL60/DOX
Method: as §5

hyperbeanol B
IC50 (K-562 cells; K-562 cells): 17 µM

hyperforin
IC50 (K-562 cells; K-562): 3.2 µM

hyperatomarin
IC50 (MDA-MB-231 cells): 0.86 µM

CC1(C)S[C@@H]2[C@H](NC(=O)Cc3ccccc3)C(=O)N2[C@H]1C(=O)O [Penicillin, penicillin G, reference compound]
MIC [1]: 0.08 µg/mL and 0.24 µM | MIC [2]: 2.5 µg/mL and 7.48 µM

hyperbeanol D
IC50 (K-562 cells; K-562 cells): 21 µM

hyperisampsin J
IC50 (HL-60 cells): 0.56 µM

COc1cc([C@@H]2c3cc4c(cc3[C@@H](O[C@@H]3O[C@@H]5CO[C@@H](C)O[C@H]5[C@H](O)[C@H]3O)[C@H]3COC(=O)[C@H]23)OCO4)cc(OC)c1O [Etoposide, reference compound]
IC50 (K-562 [3]): 2.34 ± 0.7 µM | IC50 (EJ): 5.4 ± 1.3 µM | IC50 (HL-60/DOX): 42.3 ± 2.7 µM | IC50 (MDA-MB-231 [4]): 8.42 ± 1.3 µM | IC50 (HL-60 [5]): 1.27 ± 0.4 µM

CC[C@H](C)C(=O)c1c(O)cc(O)cc1OC/C=C(\C)CCC=C(C)C [Compound 2, olympicin A]
IC50 [6]: 11.3 µM | inhibition of efflux from NorA multidrug efflux pumps [7]: inhibited the efflux | IC50 (MRSA): 1.80 µg/mL (≈ 5.2 µM) | IC50 (K-562 [3]): 22.9 ± 4 µM | IC50 (EJ): 5.61 ± 0.5 µM | IC50 (HL-60/DOX): 1.96 ± 0.2 µM | IC50 (HEK-293): 22.5 ± 3.8 µM | IC50 (MDA-MB-231 [4]): 2.95 ± 0.4 µM | IC50 (EA.hy926): 34 ± 6.5 µM | IC50 (HL-60 [5]): 13.8 ± 1.8 µM | degradation of the antiapoptotic protein Bcl-2 (in words) (Bcl-2): degradation | GI50 (K-562 [8]): 20.3 µM | TGI (K-562 [8]): 23.49 µM | GI50 (MDA-MB-231 [9]): 1.07 µM | TGI (MDA-MB-231 [9]): 2.54 µM | TGI (HL-60 [10]): 81.63 µM | GI50 (HL-60 [10]): 72.6 µM

hyphenrone R
IC50 (HL-60 cells): 3.3 µM

CNC(C)C1CCC(N)C(OC2C(N)CC(N)C(OC3OCC(C)(O)C(NC)C3O)C2O)O1 (centres unmarked) [Gentamicin, gentamicin, reference compound]
MIC [11]: 0.25 µg/mL and 0.52 µM | MIC [12]: 0.25 µg/mL and 0.52 µM | MIC [2]: 8 µg/mL and 16.8 µM

CC(C)=CCC/C(C)=C/COc1cc(O)cc(O)c1C(=O)C(C)C [Compound 1, (E)-1-[2-{(3,7-dimethylocta-2,6-dien-1-yl)oxy}-4,6-dihydroxyphenyl]-2-methylpropan-1-one]
IC50 [6]: 14.5 µM | MIC50 (MRSA): 1.14 µg/mL (≈ 3.43 µM) | degradation of the precursor caspase 9 (in words) (procaspase 9): not any observed decrease | IC50 (K-562 [3]): 9.05 ± 0.8 µM | IC50 (EJ): 7.01 ± 1.3 µM | IC50 (HL-60/DOX): 5.59 ± 0.4 µM | IC50 (HEK-293): 14.7 ± 2.2 µM | IC50 (MDA-MB-231 [4]): 24.9 ± 3.2 µM | IC50 (EA.hy926): 6.73 ± 0.9 µM | IC50 (HL-60 [5]): 16.6 ± 3.3 µM | GI50 (K-562 [8]): 5.2 µM | TGI (K-562 [8]): 11.90 µM | GI50 (MDA-MB-231 [9]): 10.4 µM | TGI (MDA-MB-231 [9]): 18.56 µM | TGI (HL-60 [10]): 9.39 µM | GI50 (HL-60 [10]): 3.79 µM

Hyperisampsin M
IC50 (HL-60 cells): 1.4 µM
